Results as given in patent US9937165B2, “Pharmacological chaperones for treating obesity” (Amicus Therapeutics, Inc., priority 2005, dated 2018).

Assays:
[1] = in vivo; cited from earlier work
MC4R = MC4R (Homo sapiens, UniProt P32245); settings: cited from earlier work
hMC4R mutant S58C = target: T1, hMC4R mutant S58C (Homo sapiens, UniProt P32245, S58C); test: Pharmacological chaperone assay, cell surface expression by FACS, mutant S58C; assay type: cell-based
T1 construct: expressed in transfected cells; host or cells: HEK 293 cells, transient transfection
Experimental: (§1) HEK 293 cells were transiently transfected with wild-type (WT) or the following hMC4R mutants double tagged with 3HA and Venus (Enhanced Yellow Green Fluorescent Protein; EYFP): S58C; N62S; R165W; R165Q, and P299H.
(§2) FACS analysis was performed after fluorescently labeling cells with primary anti-HA.11 antibody (mouse; 1:1000 dilution) and the secondary antibody coupled to Alexa 647 (goat anti-mouse; 1:1000 dilution) dilution. Live cells (propidium iodide negative) were sorted into the following two relevant populations: • P4: Total YFP positive cells (representative of total MC4R expression) • P5: Percent of cells positive for both YFP and Alexa 647 (Alexa and YFP positive cells)/(YFP positive cells+Alexa and YFP positive cells) (representative of cell surface expression)
(§3) Briefly, cells harboring each of the above-referenced MC4R mutants (transfected as described in Example 3) were cultured with each of the antagonist compounds at concentrations of 1.0 μM and 10 μM for 12 h and evaluated for cell surface expression of MC4R using fluorescent activated cell sorting analysis as described above. Cell surface expression levels are compared between treatment and basal conditions. Percent Gain is determined according to the following: [Gain=[(% of surface expression (with treatment)−% of surface expression (w/o treatment))/% of surface expression (w/o treatment)]*100.

hMC4R mutant N62S = target: T2, hMC4R mutant N62S (Homo sapiens, UniProt P32245, N62S); test: Pharmacological chaperone assay, cell surface expression by FACS, mutant N62S; assay type: cell-based; settings: 12 h
T2 construct: expressed in transfected cells; host or cells: HEK 293 cells, transient transfection
Experimental: as §1, §2, §3

hMC4R mutant R165Q = target: T3, hMC4R mutant R165Q (Homo sapiens, UniProt P32245, R165Q); test: Pharmacological chaperone assay, cell surface expression by FACS, mutant R165Q; assay type: cell-based; settings: 12 h
T3 construct: expressed in transfected cells; host or cells: HEK 293 cells, transient transfection
Experimental: as §1, §2, §3

hMC4R mutant R165W = target: T4, hMC4R mutant R165W (Homo sapiens, UniProt P32245, R165W); test: Pharmacological chaperone assay, cell surface expression by FACS, mutant R165W; assay type: cell-based
T4 construct: expressed in transfected cells; host or cells: HEK 293 cells, transient transfection
Experimental: as §1, §2, §3

hMC4R mutant P299H = target: T5, hMC4R mutant P299H (Homo sapiens, UniProt P32245, P299H); test: Pharmacological chaperone assay, cell surface expression by FACS, mutant P299H; assay type: cell-based; settings: 12 h
T5 construct: expressed in transfected cells; host or cells: HEK 293 cells, transient transfection
Experimental: as §1, §2, §3

T4 sequence (P32245 whole entry R165W): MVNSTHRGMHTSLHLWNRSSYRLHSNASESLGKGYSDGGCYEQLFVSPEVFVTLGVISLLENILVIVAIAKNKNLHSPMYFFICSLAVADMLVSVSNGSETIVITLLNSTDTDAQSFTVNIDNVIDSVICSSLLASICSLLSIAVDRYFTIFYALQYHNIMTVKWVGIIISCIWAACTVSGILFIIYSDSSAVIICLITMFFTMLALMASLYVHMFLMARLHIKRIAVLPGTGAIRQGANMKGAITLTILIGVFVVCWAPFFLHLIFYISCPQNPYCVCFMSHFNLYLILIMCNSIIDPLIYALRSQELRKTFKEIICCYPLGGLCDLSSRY
T2 sequence (P32245 whole entry N62S): as the sequence (P32245 whole entry R165W) above, with N62S, W165R counted along it
T3 sequence (P32245 whole entry R165Q): as the sequence (P32245 whole entry R165W) above, with W165Q counted along it
T5 sequence (P32245 whole entry P299H): as the sequence (P32245 whole entry R165W) above, with W165R, P299H counted along it
T1 sequence (P32245 whole entry S58C): as the sequence (P32245 whole entry R165W) above, with S58C, W165R counted along it
Chain of MC4R (P32245 whole entry): as the sequence (P32245 whole entry R165W) above, with W165R counted along it

| SMILES | % Gain in cell surface expression (hMC4R mutant S58C; 1 μM, 12 h) [%] | % Gain in cell surface expression (hMC4R mutant S58C; 10 μM, 12 h) [%] | % Gain in cell surface expression (hMC4R mutant N62S; 1 μM) [%] | % Gain in cell surface expression (hMC4R mutant N62S; 10 μM) [%] | % Gain in cell surface expression (hMC4R mutant R165Q; 1 μM) [%] | % Gain in cell surface expression (hMC4R mutant R165Q; 10 μM) [%] | % Gain in cell surface expression (hMC4R mutant R165W; 1 μM, 12 h) [%] | % Gain in cell surface expression (hMC4R mutant R165W; 10 μM, 12 h) [%] | % Gain in cell surface expression (hMC4R mutant P299H; 1 μM) [%] | % Gain in cell surface expression (hMC4R mutant P299H; 10 μM) [%] | also measured |
| --- | --- | --- | --- | --- | --- | --- | --- | --- | --- | --- | --- |
| O=C(N[C@H](Cc1ccc(Cl)cc1)C(=O)N1CCC(Cn2cncn2)(C2CCCCC2)CC1)[C@H]1Cc2ccccc2CN1 [Compound 1, THIQ] |  |  |  |  |  |  |  |  |  |  | PK %F [1]: %F 14; PK Cl [1]: Cl 84 mLmin/kg; PK Vd [1]: Vd 3.6 L/kg; PK t½ [1]: t½ 0.6 h |
| O=C(N[C@H](Cc1ccc(Cl)cc1)C(=O)N1CCN(c2ccccc2CN2CCCC2)CC1)[C@H]1Cc2ccccc2CN1 [Compound 2] |  |  |  |  |  |  |  |  |  |  | EC50 (MC4R): 39 nM |
| CC(CN1CCN(CC(c2ccc(F)cc2)N2CCN(C)CC2)CC1)C(=O)c1ccccc1 (stereo not shown) [Compound 3] | 77.5 | 130 | 25 | 343.75 | 300 | 508 | 467 | 675 | 27.78 | 77.78 | % Gain in cell surface expression (hMC4R mutant N62S; 10 μM, listed as compound depicted in FIG. 5): more potent; % Gain in cell surface expression (hMC4R mutant P299H; 10 μM, listed as compound shown in FIG. 5): only a small effect |
| Br.COc1ccc([N+](=O)[O-])cc1CSc1ccccc1C1=NCCCN1 [Compound 4] | 60 | 130 | 6.25 | 212.5 | 91.7 | 508 | 150 | 675 | 11.11 | 38.9 | % Gain in cell surface expression (hMC4R mutant P299H; 1 μM, listed as compound shown in FIG. 6): no effect; % Gain in cell surface expression (hMC4R mutant P299H; 10 μM, listed as compound shown in FIG. 6): no effect |
| COc1ccc(Cl)cc1Nc1nc(-c2sc(NC(=O)c3ccccc3)nc2C)cs1 [Compound 5] |  |  |  |  |  |  |  |  |  |  | % Gain in cell surface expression (hMC4R mutant S58C; concentration not given): 31.25%; % Gain in cell surface expression (hMC4R mutant R165W; concentration not given): 28.95% |
